In ChEMBL document CHEMBL3259577, “Antagonists of the kappa opioid receptor” (Bioorg Med Chem Lett, 2014):
One block for each compound: values may come before it. Peptide text beside a SMILES is read from it.

Columns and labels:
Mu-type opioid receptor [1] = target: T1, Mu-type opioid receptor (Homo sapiens, UniProt P35372); assay: Inhibition of mu opioid receptor (unknown origin) using DAMGO by high content imaging beta-arrestin translocation assay
[2] = target: T2, Kappa-type opioid receptor (Homo sapiens, UniProt P41145); assay: Inhibition of kappa opioid receptor (unknown origin) using dynorphin A by DiscoveryRx b-arrestin PathHunter assay
[3] = target: T3, Delta-type opioid receptor (Homo sapiens, UniProt P41143); assay: Inhibition of delta opioid receptor (unknown origin) using SNC-80 by high content imaging beta-arrestin translocation assay
[4] = target: T2, Kappa-type opioid receptor; assay: Inhibition of kappa opioid receptor (unknown origin) using dynorphin A by high content imaging beta-arrestin translocation assay
CHO [5] = assay: Selectivity ratio of Ki for mu opioid receptor (unknown origin) expressed in CHO cell membranes to Ki for kappa opioid receptor (unknown origin) expressed in CHO cell membranes; assay type: cell-based; conditions: Homo sapiens
CHO [6] = assay: Selectivity ratio of Ki for delta opioid receptor (unknown origin) expressed in CHO cell membranes to Ki for kappa opioid receptor (unknown origin) expressed in CHO cell membranes; assay type: cell-based; conditions: Homo sapiens
Mu-type opioid receptor [7] = target: T1, Mu-type opioid receptor; assay: Agonist activity at human cloned mu opioid receptor expressed in CHO cells assessed as stimulation of [35S]-GTP[gammaS] binding; assay type: cell-based
Cavia porcellus = organism: Cavia porcellus; assay: (§1) Antagonist activity at delta opioid receptor in guinea pig caudate assessed as inhibition of SNC-80-stimulated [35S]-GTP[gammaS] binding
Histamine H1 receptor = Histamine H1 receptor (Homo sapiens, UniProt P35367); assay: Binding affinity to histamine H1 receptor (unknown origin)
[8] = target: Sodium-dependent noradrenaline transporter (Homo sapiens, UniProt P23975); assay: Binding affinity to NET (unknown origin)
D(3) dopamine receptor = D(3) dopamine receptor (Homo sapiens, UniProt P35462); assay: Binding affinity to dopamine D3 receptor (unknown origin)
[9] = Drug metabolism in mouse liver microsomes assessed as compound remaining after 1 hr; assay type: ADME; conditions: read-out: Drug metabolism
Mu-type opioid receptor [10] = target: T4, Mu-type opioid receptor (Cavia porcellus, UniProt P97266); assay: Antagonist activity at mu opioid receptor in guinea pig caudate assessed as inhibition of DAMGO-stimulated [35S]-GTP[gammaS] binding; assay type: functional
[11] = as §1; parameters: species or system Cavia porcellus
[12] = target: T2, Kappa-type opioid receptor; assay: Displacement of [3H]diprenorphine from kappa opioid receptor (unknown origin) expressed in CHO cells membranes; assay type: cell membranes
Mu-type opioid receptor [13] = target: T1, Mu-type opioid receptor; assay: Displacement of [3H]diprenorphine from mu opioid receptor (unknown origin) expressed in CHO cells membranes; assay type: cell membranes
[14] = target: T3, Delta-type opioid receptor; assay: Displacement of [3H]diprenorphine from delta opioid receptor (unknown origin) expressed in CHO cells membranes; assay type: cell membranes
[15] = target: Kappa-type opioid receptor (Cavia porcellus, UniProt P41144); assay: Antagonist activity at kappa opioid receptor in guinea pig ileum assessed as inhibition of U50488-stimulated [35S]-GTP[gammaS] binding; assay type: functional, tissue-based; conditions: read-out: pA2 (converted)
Mu-type opioid receptor [16] = target: T4, Mu-type opioid receptor; assay: Antagonist activity at mu opioid receptor in guinea pig ileum assessed as inhibition of DAMGO-stimulated [35S]-GTP[gammaS] binding; assay type: functional, tissue-based; conditions: read-out: pA2 (converted)
Mu-type opioid receptor [17] = target: T1, Mu-type opioid receptor; assay: Antagonist activity at human cloned mu opioid receptor expressed in CHO cells assessed as inhibition of DAMGO-stimulated [35S]-GTP[gammaS] binding; assay type: cell-based
[18] = target: T2, Kappa-type opioid receptor; assay: Antagonist activity at human cloned kappa opioid receptor expressed in CHO cells assessed as inhibition of Dynorphin A-stimulated [35S]-GTP[gammaS] binding; assay type: functional, cell-based
Mus musculus = organism: Mus musculus; assay: Antinociceptive activity in mouse assessed as reversal of U50488-induced withdrawl latencies; assay type: functional
[19] = AUC in rat at 1 mg/kg, iv; assay type: ADME, organism-based; parameters: dose 1 mg/kg, route intravenous; conditions: plasma
[20] = Cmax in rat at 1 mg/kg, iv; assay type: ADME, organism-based; parameters: dose 1 mg/kg, route intravenous; conditions: in vivo
[21] = Tmax in rat at 1 mg/kg, iv; assay type: ADME, organism-based; parameters: dose 1 mg/kg, route intravenous; conditions: in vivo
[22] = Half life in rat at 1 mg/kg, iv; assay type: ADME, organism-based; parameters: dose 1 mg/kg, route intravenous; conditions: in vivo
[23] = Clearance in rat at 1 mg/kg, iv; assay type: ADME, organism-based; parameters: dose 1 mg/kg, route intravenous; conditions: in vivo
[24] = AUC in rat at 10 mg/kg, po; assay type: ADME, organism-based; parameters: dose 10 mg/kg, route oral; conditions: plasma
[25] = Cmax in rat at 10 mg/kg, po; assay type: ADME, organism-based; parameters: dose 10 mg/kg, route oral; conditions: in vivo
[26] = Tmax in rat at 10 mg/kg, po; assay type: ADME, organism-based; parameters: dose 10 mg/kg, route oral; conditions: in vivo
[27] = Half life in rat at 10 mg/kg, po; assay type: ADME, organism-based; parameters: dose 10 mg/kg, route oral; conditions: in vivo
[28] = Oral bioavailability in rat at 10 mg/kg; assay type: ADME, organism-based; conditions: in vivo
Rattus norvegicus = assay: Analgesic activity in po dosed rat assessed as inhibition of formalin response; assay type: functional
Homo sapiens = organism: Homo sapiens; assay: Selectivity ratio for OPRK (unknown origin) to OPRM (unknown origin)

T3 sequence (P41143 whole entry): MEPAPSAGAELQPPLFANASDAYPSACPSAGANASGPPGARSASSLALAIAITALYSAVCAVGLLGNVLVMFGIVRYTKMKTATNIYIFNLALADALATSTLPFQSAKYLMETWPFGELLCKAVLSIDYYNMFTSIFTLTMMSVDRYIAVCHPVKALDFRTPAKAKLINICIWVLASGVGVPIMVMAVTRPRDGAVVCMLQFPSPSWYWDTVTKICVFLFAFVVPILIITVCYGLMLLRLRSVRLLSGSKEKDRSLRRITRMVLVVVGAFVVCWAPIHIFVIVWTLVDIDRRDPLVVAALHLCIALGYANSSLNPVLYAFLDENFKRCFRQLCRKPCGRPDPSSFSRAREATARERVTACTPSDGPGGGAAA
T2 sequence (P41145 whole entry): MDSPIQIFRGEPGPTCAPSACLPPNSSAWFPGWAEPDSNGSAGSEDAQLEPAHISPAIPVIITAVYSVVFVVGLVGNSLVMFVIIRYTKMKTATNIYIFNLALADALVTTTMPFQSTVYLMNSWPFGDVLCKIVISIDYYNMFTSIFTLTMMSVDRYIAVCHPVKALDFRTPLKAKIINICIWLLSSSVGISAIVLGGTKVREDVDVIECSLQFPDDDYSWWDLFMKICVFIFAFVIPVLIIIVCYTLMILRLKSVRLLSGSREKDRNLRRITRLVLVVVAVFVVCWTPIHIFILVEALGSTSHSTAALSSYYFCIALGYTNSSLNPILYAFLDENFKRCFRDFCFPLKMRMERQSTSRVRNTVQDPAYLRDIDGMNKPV
T1 sequence (P35372 whole entry): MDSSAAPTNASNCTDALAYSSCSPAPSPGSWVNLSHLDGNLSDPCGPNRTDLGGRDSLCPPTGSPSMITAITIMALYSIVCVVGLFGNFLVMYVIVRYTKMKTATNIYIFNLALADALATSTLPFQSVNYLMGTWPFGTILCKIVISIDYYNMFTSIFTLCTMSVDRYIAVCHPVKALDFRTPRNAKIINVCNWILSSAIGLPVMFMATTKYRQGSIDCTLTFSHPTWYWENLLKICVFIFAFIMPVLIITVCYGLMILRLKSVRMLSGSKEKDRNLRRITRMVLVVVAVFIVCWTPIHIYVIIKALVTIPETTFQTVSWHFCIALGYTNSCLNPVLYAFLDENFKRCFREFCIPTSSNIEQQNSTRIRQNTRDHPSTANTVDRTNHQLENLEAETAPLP
T4 sequence (P97266 whole entry): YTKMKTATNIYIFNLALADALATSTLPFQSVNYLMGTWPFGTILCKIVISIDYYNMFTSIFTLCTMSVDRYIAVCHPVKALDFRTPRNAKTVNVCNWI
Histamine H1 receptor, sequence (P35367 whole entry): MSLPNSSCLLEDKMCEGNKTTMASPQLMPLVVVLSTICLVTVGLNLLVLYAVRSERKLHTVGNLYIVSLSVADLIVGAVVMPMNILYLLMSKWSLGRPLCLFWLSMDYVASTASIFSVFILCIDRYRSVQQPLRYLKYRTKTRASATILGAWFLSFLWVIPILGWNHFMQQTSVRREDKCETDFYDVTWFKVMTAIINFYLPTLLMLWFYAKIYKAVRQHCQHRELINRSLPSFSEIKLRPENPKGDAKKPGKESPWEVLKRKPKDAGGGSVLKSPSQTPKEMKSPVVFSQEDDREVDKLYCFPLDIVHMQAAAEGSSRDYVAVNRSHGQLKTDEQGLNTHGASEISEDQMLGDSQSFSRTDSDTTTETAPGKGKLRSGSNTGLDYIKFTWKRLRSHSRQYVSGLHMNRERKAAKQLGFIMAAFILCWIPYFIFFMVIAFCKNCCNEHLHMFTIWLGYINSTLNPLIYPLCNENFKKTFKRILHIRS
Sodium-dependent noradrenaline transporter, sequence (P23975 whole entry): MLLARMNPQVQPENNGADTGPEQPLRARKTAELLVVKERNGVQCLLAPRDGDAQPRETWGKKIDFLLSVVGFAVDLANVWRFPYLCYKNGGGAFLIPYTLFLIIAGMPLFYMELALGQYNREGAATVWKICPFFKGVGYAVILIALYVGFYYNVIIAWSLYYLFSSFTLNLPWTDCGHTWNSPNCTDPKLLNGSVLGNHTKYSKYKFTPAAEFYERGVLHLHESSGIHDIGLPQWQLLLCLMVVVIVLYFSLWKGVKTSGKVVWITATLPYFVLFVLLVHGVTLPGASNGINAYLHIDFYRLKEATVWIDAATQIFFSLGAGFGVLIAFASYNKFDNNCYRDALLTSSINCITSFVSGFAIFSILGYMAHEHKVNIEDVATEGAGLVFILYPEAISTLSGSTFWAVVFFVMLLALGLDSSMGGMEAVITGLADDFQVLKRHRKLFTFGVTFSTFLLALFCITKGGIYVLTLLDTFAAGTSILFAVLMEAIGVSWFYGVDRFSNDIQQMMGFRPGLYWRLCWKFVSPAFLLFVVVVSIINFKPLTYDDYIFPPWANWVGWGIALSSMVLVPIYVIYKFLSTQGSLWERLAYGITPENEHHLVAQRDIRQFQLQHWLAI
D(3) dopamine receptor, sequence (P35462 whole entry): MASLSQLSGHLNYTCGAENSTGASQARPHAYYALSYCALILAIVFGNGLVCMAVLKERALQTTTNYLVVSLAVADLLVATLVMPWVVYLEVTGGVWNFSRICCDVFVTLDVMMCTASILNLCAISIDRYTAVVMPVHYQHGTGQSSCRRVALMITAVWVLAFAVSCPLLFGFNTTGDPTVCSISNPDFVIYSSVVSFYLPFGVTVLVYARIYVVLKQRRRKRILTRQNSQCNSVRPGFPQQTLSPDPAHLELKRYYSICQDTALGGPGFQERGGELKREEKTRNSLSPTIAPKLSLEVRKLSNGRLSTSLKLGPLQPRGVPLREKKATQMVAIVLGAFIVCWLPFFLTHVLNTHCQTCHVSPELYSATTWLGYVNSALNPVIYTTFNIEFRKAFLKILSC
Kappa-type opioid receptor (Cavia porcellus, UniProt P41144), sequence (P41144 whole entry): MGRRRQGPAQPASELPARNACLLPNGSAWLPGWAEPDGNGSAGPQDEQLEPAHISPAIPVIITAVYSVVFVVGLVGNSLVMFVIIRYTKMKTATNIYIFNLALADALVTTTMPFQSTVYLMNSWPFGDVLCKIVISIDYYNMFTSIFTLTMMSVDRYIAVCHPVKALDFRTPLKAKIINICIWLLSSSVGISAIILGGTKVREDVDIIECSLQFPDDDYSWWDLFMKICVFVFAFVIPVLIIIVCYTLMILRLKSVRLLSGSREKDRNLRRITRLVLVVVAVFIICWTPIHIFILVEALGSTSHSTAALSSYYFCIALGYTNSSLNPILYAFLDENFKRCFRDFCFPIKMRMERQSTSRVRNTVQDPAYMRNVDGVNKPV

IC50 (Mu-type opioid receptor [1]): > 32 µM | IC50 [2]: 1.12 µM | IC50 [3]: > 32 µM
SMILES: CCc1ccc(S(=O)(=O)NCc2ccc(C(=O)NCCN(Cc3ccccc3)C(C)C)cc2)cc1

IC50 (Mu-type opioid receptor [1]): > 32 µM | IC50 [2]: > 20 µM | IC50 [4]: > 32 µM | IC50 [3]: > 32 µM
SMILES: Cc1ccc(S(=O)(=O)NCc2ccc(C(=O)NCCCN(Cc3ccccc3)C(C)C)cc2)cc1

SMILES: CC[C@H](C)[C@@H]1NC(=O)[C@H](CCCNC(=N)N)NC(=O)[C@@H](NC(=O)[C@H](Cc2ccccc2)NC(=O)CNC(=O)CNC(=O)[C@H](Cc2ccc(O)cc2)NCc2ccccc2)CC(=O)NC[C@@H](C(=O)N[C@@H](CCCNC(=N)N)C(=O)N2CCC[C@H]2C(=O)N[C@@H](CCCCN)C(N)=O)NC1=O
Ratio Ki (CHO [5]): 194 | Ratio Ki (CHO [6]): > 330

SMILES: CO[C@H]1Cc2ccc(O)cc2C(C)(C)[C@@H]1N
Activity (Mu-type opioid receptor [7]): 31.6% | EC50 (Mu-type opioid receptor [7]): 0.234 µM

SMILES: CC(C)[C@@H](CN1CC[C@@](C)(c2cccc(O)c2)[C@@H](C)C1)NC(=O)[C@H]1Cc2ccc(O)cc2CN1C
Ke (Cavia porcellus): > 300 nM

IC50 (Mu-type opioid receptor [1]): > 32 µM | IC50 [3]: > 32 µM | Ki (Histamine H1 receptor): < 1 µM | Ki [8]: < 1 µM | Ki (D(3) dopamine receptor): < 1 µM | remaining at 1 h [9]: 7.34%
SMILES: COc1ccc(N2CCN(CCCNC(=O)Cn3c(=O)c4cccn4c4c(C)ccnc43)CC2)cc1

IC50 [3]: > 32 µM
SMILES: COc1ccc(N2CCN(CCCNC(=O)Cn3c(=O)c4cccn4c4cc(Br)cnc43)CC2)cc1

SMILES: CC(=O)N1Cc2cc(O)ccc2C[C@@H]1C(=O)N[C@H](CN1CC[C@@](C)(c2cccc(O)c2)[C@@H](C)C1)C(C)C
Ke (Cavia porcellus): > 300 nM

SMILES: CC(C)[C@@H](CN1CC[C@@](C)(c2cccc(O)c2)[C@@H](C)C1)NC(=O)[C@H]1Cc2ccc(O)cc2CN1 [JDTIC]
Ki (Mu-type opioid receptor [10]): 0.00216 µM | Ki [11]: > 0.3 µM

SMILES: C[C@H]1CN(CCCOC(=O)[C@H]2Cc3ccc(O)cc3CN2)CC[C@@]1(C)c1cccc(O)c1
Ki [12]: 0.0252 µM | Ki (Mu-type opioid receptor [13]): 0.00655 µM | Ki [14]: 0.221 µM | Kb [15]: 0.174 µM | Kb (Mu-type opioid receptor [16]): 0.0933 µM

SMILES: O=C1N[C@@H](Cc2ccccc2)C(=O)N2CCC[C@H]2C(=O)N[C@@H](Cc2ccccc2)C(=O)N[C@H]1Cc1c[nH]c2ccccc12 (cyclo(FPFW))
Kb (Mu-type opioid receptor [17]): 0.0102 µM | Kb [18]: 0.0652 µM | Time (Mus musculus): >24 h

IC50 (Mu-type opioid receptor [1]): > 32 µM | IC50 [3]: > 32 µM
SMILES: Cc1ccc(S(=O)(=O)NCc2ccc(C(=O)NCCN(Cc3ccc(Br)cc3)C(C)C)cc2)cc1

IC50 (Mu-type opioid receptor [1]): > 32 µM | IC50 [2]: 0.69 µM | IC50 [3]: > 32 µM
SMILES: Cc1ccnc2c1n1cccc1c(=O)n2CC(=O)NCCCN1CCN(c2ccc(Cl)cc2)CC1

SMILES: Cc1cc(C)cc([C@@H]2CCCN2Cc2ccc(Oc3ccc(C(N)=O)cc3F)cc2)c1 [ATICAPRANT]
AUC [19]: 186 ng·h/mL | Cmax [20]: 334 ng/mL | Tmax [21]: 0 h | half-life [22]: 1.8 h | clearance [23]: 89.3 mL/min/kg | AUC [24]: 466 ng·h/mL | Cmax [25]: 95 ng/mL | Tmax [26]: 2 h | half-life [27]: 3.8 h | bioavailability [28]: 25.4% | ED50 (Rattus norvegicus): 0.4 mg/kg | Ratio (Homo sapiens): 43

SMILES: CC(C)[C@@H](CN1CC[C@@](C)(c2cccc(O)c2)[C@@H](C)C1)NC(=O)[C@@H](N)Cc1ccc(O)cc1
Ke (Cavia porcellus): 452 nM

SMILES: CC(C)[C@@H](CN1CC[C@@](C)(c2cccc(O)c2)[C@@H](C)C1)NC(=O)CCc1ccc(O)cc1
Ke (Cavia porcellus): 450 nM
